Assay results from US20120128580A1, “PRESELECTION OF SUBJECTS FOR THERAPEUTIC TREATMENT WITH ELESCLOMOL BASED ON HYPOXIC STATUS” (SYNTA PHARMACEUTICALS CORP., priority 2010, published 2012).

How the values were obtained:
Type in all cases: in vivo, human
[1] = tested on: non-small cell lung carcinoma (NSCLC); experiment: Phase II study, elesclomol with paclitaxel and carboplatin versus paclitaxel and carboplatin alone; conditions: previously untreated NSCLC Stage IIIB or IV, i.v. every three weeks for six cycles
Method: For example, a Phase II study was performed to test elesclomol in combination with paclitaxel and carboplatin, as compared to paclitaxel and carboplatin alone, in 86 subjects with previously untreated non-small cell lung carcinoma (NSCLC) and non-resectable, locally advanced, or metastatic disease (Stage IIIB or IV) were randomized 1:1 into treatment groups for treatment with carboplatnin plus elesclomol (CP+E) or carboplatnin alone (CP). Subjects were dosed intravenously with 200 mg/m^2 of paclitaxel and AUC=6 of carboplatnin either with or without 266 mg/m^2 of elesclomol every three weeks for six cycles, likely resulting in complete clearance of elesclomol between doses.

cancer = experiment: Chart review of treatment outcomes by level of hypoxia
Method: A chart review analysis is performed to determine the efficacy of elesclomol for the treatment of cancer based on the level of hypoxia of the tumor based on markers assessed during the treatment of the subjects. […] Subjects who were treated with elesclomol for whom no levels of hypoxic markers were determined can be used as an unstratified control group to understand the efficacy of elesclomol on a treatment population not selected based on the level of hypoxia in the subject/tumor. Alternatively, the population analyzed in the study for which hypoxia levels (e.g., LDH marker levels) can be compared to historical control samples in which an unstratified population was analyzed for response to elesclomol. […] Preferably, the same marker(s) of hypoxia is measured in each of the subjects, e.g., at least one isoform or subunit of lactate dehydrogenase (LDH) or hypoxia inducible factor (HIF); at least one pro-angiogenic form of vascular endothelial growth factor (VEGF), phosphorylated VEGF receptor (pKDR) 1, 2, or 3; neurolipin 1 (NRP-1), pyruvate dehydrokinase (PDH-K), and ornithine decarboxylase (ODC). […]

solid tumors = experiment: Trial of elesclomol in subjects with solid tumors stratified by level of hypoxia; conditions: elesclomol alone or in combination
Excerpt: Subjects diagnosed with solid tumors are recruited for a study to determine the efficacy of elesclomol in the treatment of solid tumors, preferably tumors from the same tissue origin, e.g., breast, prostate, lung, liver, brain, colorectal, etc. Inclusion criteria include the presence of a solid tumor. Exclusion criteria include the presence of an ischemia related disease or disorder including, e.g., ischemic heart or vascular disease, poor circulation, diabetes, macular degeneration, recent stroke, or other ischemic events or conditions; or surgery planned during the duration of the trial. […]
All subjects are treated with elesclomol, either alone or in combination with one or more additional chemotherapeutic agents. […] Subjects are monitored for response to the agent throughout the trial, at the end of the trial, and at regular intervals after the conclusion of the trial using routine methods including, but not limited to, e.g., imaging, hematology, and physical examination. […] Preferably, the subjects continue to be monitored for outcomes beyond the formal end of the trial. […]
An analysis of the samples collected from subjects prior to and optionally during treatment is performed to determine the efficacy of elesclomol for the treatment of cancer based on the level of hypoxia of the tumor based on markers assessed prior to and optionally during the treatment of the subjects. […]

For `CN(NC(=O)CC(=O)NN(C)C(=S)c1ccccc1)C(=S)c1ccccc1` [Elesclomol, N-malonyl-bis(N′-methyl-N′-thiobenzoylhydrazide)], the “Median Progression Free Survival” value ([1]; High LDH) was 2.8 months, the “Median Progression Free Survival” value ([1]; Low LDH) was 4.6 months and the “response of subjects with a low level of hypoxia compared to a high level of hypoxia” value (cancer) was “better response”. The “response of subjects with a low level of hypoxia compared to a high level of hypoxia” value (solid tumors) was “better response”.
